# Laboratory results from patent US11028079B2 (ConverGene LLC, priority 2015, dated 2021).
# Biological target: T1, BRD4 bromodomains (Homo sapiens, UniProt O60885)
# T1 construct: fused on or other part: T7 phage capsid protein (phage-display fusion; the phage DNA is read out by qPCR)
# Experiment: BROMOscan bromodomain competition binding assay (DiscoveRx)
# Conditions: Kd from 11 compound concentrations ranging from 0 to 10 μM, read-out: BROMOscan Relative Activity
# Procedure, shortened: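 Compounds in 0.1% DMSO/0.9% MEG competed with a solid-phase acetylated peptide for T7 phage-fused BRD4 bromodomains, with the retained bromodomain measured by qPCR.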
row,Kd,SMILES
1,< 500 nM,"Cc1noc(C)c1-c1ccc2nc(N(C)CCN(C)C)nc(NCc3cccc(Cl)c3)c2c1 [Example 22, N4-(3-chlorobenzyl)-N2-(2-(dimethylamino)ethyl)-6-(3,5-dimethylisoxazol-4-yl)-N2-methylquinazoline-2,4-diamine]"
2,< 500 nM,"Cc1noc(C)c1-c1ccc2nc(C(=O)NCC3CN(C)C3)nc(NCc3cncc(Cl)c3)c2c1 [Example 233, 4-(((5-chloropyridin-3-yl)methyl)amino)-6-(3,5-dimethylisoxazol-4-yl)-N-((1-methylazetidin-3-yl)methyl)quinazoline-2-carboxamide]"
3,< 500 nM,"CC(=O)N1CCN(c2nc(NCc3cccc(Cl)c3)c3cc(-c4c(C)noc4C)ccc3n2)CC1 [Example 184, 1-(4-(4-((3-chlorobenzyl)amino)-6-(3,5-dimethylisoxazol-4-yl)quinazolin-2-yl)piperazin-1-yl)ethanone]"
4,< 500 nM,"Cc1cnc(CNC(=O)c2nc(NCc3cccc(Cl)c3)c3cc(-c4c(C)noc4C)ccc3n2)s1 [Example 213, 4-((3-chlorobenzyl)amino)-6-(3,5-dimethylisoxazol-4-yl)-N-((5-methylthiazol-2-yl)methyl)quinazoline-2-carboxamide]"
5,< 500 nM,"Cc1noc(C)c1-c1ccc2nc(N3CCN(CCN(C)C)CC3)cc(NCc3cccc(Cl)c3)c2c1 [Example 26, N-(3-chlorobenzyl)-2-(4-(2-(dimethylamino)ethyl)piperazin-1-yl)-6-(3,5-dimethylisoxazol-4-yl)quinolin-4-amine]"
6,< 500 nM,"Cc1noc(C)c1-c1ccc2nc(C(=O)N3CCc4[nH]ncc4C3)nc(NCc3cccc(Cl)c3)c2c1 [Example 287, (4-((3-chlorobenzyl)amino)-6-(3,5-dimethylisoxazol-4-yl)quinazolin-2-yl)(1,4,6,7-tetrahydro-5H-pyrazolo[4,3-c]pyridin-5-yl)methanone]"
7,< 500 nM,"Cc1noc(C)c1-c1ccc2nc(N3CCN(C(=O)CN(C)C)CC3)nc(NCc3cccc(Cl)c3)c2c1 [Example 37, 1-(4-(4-((3-chlorobenzyl)amino)-6-(3,5-dimethylisoxazol-4-yl)quinazolin-2-yl)piperazin-1-yl)-2-(dimethylamino)ethanone]"
8,< 500 nM,"Cc1noc(C)c1-c1ccc2nc(C(=O)N[C@H]3C[C@H](O)C3)nc(NCc3cccc(Cl)c3)c2c1 [Example 253, 4-((3-chlorobenzyl)amino)-6-(3,5-dimethylisoxazol-4-yl)-N-((trans)-3-hydroxycyclobutyl)quinazoline-2-carboxamide]"
9,< 500 nM,"Cc1noc(C)c1-c1ccc2nc(N3CCN(C[C@H](C)O)CC3)nc(NCc3cccc(Cl)c3)c2c1 [Example 47, (S)-1-(4-(4-((3-chlorobenzyl)amino)-6-(3,5-dimethylisoxazol-4-yl)quinazolin-2-yl)piperazin-1-yl)propan-2-ol]"
10,500 to 5000 nM,"Cc1noc(C)c1-c1ccc2nc(N3CCc4c(cnn4C)C3)nc(NCc3cccc(Cl)c3)c2c1 [Example 278, N-(3-chlorobenzyl)-6-(3,5-dimethylisoxazol-4-yl)-2-(1-methyl-1,4,6,7-tetrahydro-5H-pyrazolo[4,3-c]pyridin-5-yl)quinazolin-4-amine]"
11,500 to 5000 nM,"Cc1noc(C)c1-c1ccc2nc(N3CCC(CCO)CC3)nc(NCc3cccc(Cl)c3)c2c1 [Example 30, 2-(1-(4-((3-chlorobenzyl)amino)-6-(3,5-dimethylisoxazol-4-yl)quinazolin-2-yl)piperidin-4-yl)ethanol]"
12,< 500 nM,"Cc1noc(C)c1-c1ccc2nc(C(=O)NCc3ccncc3)nc(NCc3cccc(Cl)c3)c2c1 [Example 171, 4-((3-chlorobenzyl)amino)-6-(3,5-dimethylisoxazol-4-yl)-N-(pyridin-4-ylmethyl)quinazoline-2-carboxamide]"
13,500 to 5000 nM,"Cc1noc(C)c1-c1ccc2nc(C(=O)N3CCN(CCN(C)C)CC3)nc(NCc3cccc(Cl)c3)c2c1 [Example 165, (4-((3-chlorobenzyl)amino)-6-(3,5-dimethylisoxazol-4-yl)quinazolin-2-yl)(4-(2-(dimethylamino)ethyl)piperazin-1-yl)methanone]"
14,500 to 5000 nM,"Cc1noc(C)c1-c1ccc2nccc(NCc3cccc(Cl)c3)c2c1 [Example 3, N-(3-chlorobenzyl)-6-(3,5-dimethylisoxazol-4-yl)quinolin-4-amine]"
15,< 500 nM,"Cc1noc(C)c1-c1ccc2nc(C(=O)NCC3CN(C)C3)nc(NC3(c4cccc(Cl)c4)CC3)c2c1 [Example 240, 4-((1-(3-chlorophenyl)cyclopropyl)amino)-6-(3,5-dimethylisoxazol-4-yl)-N-((1-methylazetidin-3-yl)methyl)quinazoline-2-carboxamide]"
16,< 500 nM,"Cc1noc(C)c1-c1ccc2nc(N3CCN(C(=O)N(C)C)CC3)nc(NCc3cccc(Cl)c3)c2c1 [Example 244, 4-(4-((3-chlorobenzyl)amino)-6-(3,5-dimethylisoxazol-4-yl)quinazolin-2-yl)-N,N-dimethylpiperazine-1-carboxamide]"
17,< 500 nM,"Cc1noc(C)c1-c1ccc2nc(N3CCN(C(=O)c4cnn(C)c4)CC3)nc(NCc3cccc(Cl)c3)c2c1 [Example 18, (4-(4-((3-chlorobenzyl)amino)-6-(3,5-dimethylisoxazol-4-yl)quinazolin-2-yl)piperazin-1-yl)(1-methyl-1H-pyrazol-4-yl)methanone]"

# More lines, now with the values behind:
row,SMILES,Kd
1,"Cc1noc(C)c1-c1ccc2nc(N3CCN(CC(N)=O)CC3)nc(N3CCOC[C@@H]3c3ccccc3)c2c1 [Example 307, (S)-2-(4-(6-(3,5-dimethylisoxazol-4-yl)-4-(3-phenylmorpholino)quinazolin-2-yl)piperazin-1-yl)acetamide]",< 500 nM
2,"Cc1noc(C)c1-c1ccc2nc(N3CCN(CCN(C)C)CC3)nc(NC(C)c3cccc(Cl)c3)c2c1 (centres unmarked) [Example 90, N-(1-(3-chlorophenyl)ethyl)-2-(4-(2-(dimethylamino)ethyl)piperazin-1-yl)-6-(3,5-dimethylisoxazol-4-yl)quinazolin-4-amine]",< 500 nM
3,"CN(C)CCN1CCN(c2nc(NCc3cccc(Cl)c3)c3cc(-c4cnc(O)c(F)c4)ccc3n2)CC1 [Example 86, 5-(4-((3-chlorobenzyl)amino)-2-(4-(2-(dimethylamino)ethyl)piperazin-1-yl)quinazolin-6-yl)-3-fluoropyridin-2-ol]",500 to 5000 nM
4,"Cn1cc(-c2ccc3nc(N4CCN(CCO)CC4)nc(NCc4cncc(Cl)c4)c3c2)ccc1=O [Example 126, 5-(4-(((5-chloropyridin-3-yl)methyl)amino)-2-(4-(2-hydroxyethyl)piperazin-1-yl)quinazolin-6-yl)-1-methylpyridin-2(1H)-one]",< 500 nM
5,"CNC(=O)C1CCN(c2nc(N3CCN(CCN(C)C)CC3)nc3ccc(-c4c(C)noc4C)cc23)CC1 [Example 267, 1-(2-(4-(2-(dimethylamino)ethyl)piperazin-1-yl)-6-(3,5-dimethylisoxazol-4-yl)quinazolin-4-yl)-N-methylpiperidine-4-carboxamide]",< 500 nM
6,"Cn1cc(-c2ccc3nc(-c4cnn(CC(C)(C)O)c4)nc(NCc4cncc(Cl)c4)c3c2)ccc1=O [Example 148, 5-(4-(((5-chloropyridin-3-yl)methyl)amino)-2-(1-(2-hydroxy-2-methylpropyl)-1H-pyrazol-4-yl)quinazolin-6-yl)-1-methylpyridin-2(1H)-one]",500 to 5000 nM
7,"Cc1noc(C)c1-c1ccc2nc(-c3cnn(CC(=O)N(C)C)c3)nc(N3CCOC[C@@H]3c3ccccc3)c2c1 [Example 301, (S)-2-(4-(6-(3,5-dimethylisoxazol-4-yl)-4-(3-phenylmorpholino)quinazolin-2-yl)-1H-pyrazol-1-yl)-N,N-dimethylacetamide]",< 500 nM
8,"Cc1noc(C)c1-c1ccc2nc(-c3ccc(CO)nc3)nc(N3CCOC[C@@H]3c3ccccc3)c2c1 [Example 321, (S)-(5-(6-(3,5-dimethylisoxazol-4-yl)-4-(3-phenylmorpholino)quinazolin-2-yl)pyridin-2-yl)methanol]",< 500 nM
9,"Cc1noc(C)c1-c1ccc2nc(N3CCN(CCN(C)C)CC3)nc(O)c2c1 [Example 68, 2-(4-(2-(dimethylamino)ethyl)piperazin-1-yl)-6-(3,5-dimethylisoxazol-4-yl)quinazolin-4-ol]",500 to 5000 nM
10,"Cc1noc(C)c1-c1ccc2nc(C(=O)NCC3CN(C)C3)nc(N3CCOC[C@@H]3c3ccccc3)c2c1 [Example 283, (S)-6-(3,5-dimethylisoxazol-4-yl)-N-((1-methylazetidin-3-yl)methyl)-4-(3-phenylmorpholino)quinazoline-2-carboxamide]",< 500 nM
11,"Cn1cc(-c2ccc3nc(-c4cnn(CCC#N)c4)nc(NCc4cccc(Cl)c4)c3c2)ccc1=O [Example 104, 3-(4-(4-((3-chlorobenzyl)amino)-6-(1-methyl-6-oxo-1,6-dihydropyridin-3-yl)quinazolin-2-yl)-1H-pyrazol-1-yl)propanenitrile]",< 500 nM
12,"CCNC(=O)N1CCN(c2nc(N3CCOC[C@@H]3c3ccccc3)c3cc(-c4c(C)noc4C)ccc3n2)CC1 [Example 299, (S)-4-(6-(3,5-dimethylisoxazol-4-yl)-4-(3-phenylmorpholino)quinazolin-2-yl)-N-ethylpiperazine-1-carboxamide]",< 500 nM
13,"Cc1noc(C)c1-c1ccc2nc(N3CCS(=O)(=O)CC3)nc(NCc3cncc(Cl)c3)c2c1 [Example 241, 4-(4-(((5-chloropyridin-3-yl)methyl)amino)-6-(3,5-dimethylisoxazol-4-yl)quinazolin-2-yl)thiomorpholine 1,1-dioxide]",< 500 nM
14,"Cc1noc(C)c1-c1ccc2nc(C(=O)NC3CCS(=O)(=O)CC3)nc(NC3(c4cccc(Cl)c4)CC3)c2c1 [Example 246, 4-((1-(3-chlorophenyl)cyclopropyl)amino)-6-(3,5-dimethylisoxazol-4-yl)-N-(1,1-dioxidotetrahydro-2H-thiopyran-4-yl)quinazoline-2-carboxamide]",< 500 nM
15,"Cc1noc(C)c1-c1ccc2nc(-c3c(C)noc3C)nc(NCc3cccs3)c2c1 [Example 69, 2,6-bis(3,5-dimethylisoxazol-4-yl)-N-(thiophen-2-ylmethyl)quinazolin-4-amine]",500 to 5000 nM
